The text below walks through data of article PMC7772935, “Plant-Derived Compounds as a Tool for the Control of Gastrointestinal Nematodes: Modulation of Abamectin Pharmacological Action by Carvone” (Frontiers in Veterinary Science, 2020).

Series [1] in a line: ABM plasma disposition after oral administration to lambs. The following applies: ABM 0.2 mg/kg oral, alone or with R-CNE 4 x 100 mg/kg every 24 h, mean ± SD, n = 8. The source says: (§1) Data are expressed as mean ± standard deviation (SD). […] Differences were considered statistically significant at p < 0.05.
The test system of series [2] is resistant gastrointestinal nematodes. Put plainly: Fecal egg count reduction test in naturally infected lambs. The format is in vivo. On the procedure:
(§2) All the animals had free access to water. Lambs were assigned to three experimental groups.
The fecal samples were analyzed to obtain the epg counts. The coprocultures were prepared with 10 g of feces from a pool of each experimental group obtained on days−1 and 14. The nematode genera and species were identified through the third-stage larvae recovered from the coprocultures ([24]). The fecal egg count reduction test (FECRT) was calculated using the Abbott's formula ([25]), with modifications: […]
where T1 and T2 are the arithmetic mean epg counts in the treated group on days 0 and 14, respectively, and C1 and C2 are the arithmetic mean epg counts in the control group on days 0 and 14, respectively. The 95% confidence intervals were calculated following Coles et al. ([26]).

Another series relates to P-gp transport. Also on record: method as in PMID 25865432. To be noted: cited from earlier work.
Series [3] deals with bovine ileal explants. Put plainly: ABM accumulation in bovine ileal explants, modulation by R-CNE or IVM. The following applies: 0.05 μM ABM; for Effect on ABM accumulation in intestinal explants: 3.33 mM R-CNE or 0.5 μM IVM, 15-60 min. The format is in vitro ADME, cattle. The source says: Cattle ileum samples were obtained from a local slaughterhouse ([…], Argentina) located 16 km away from the laboratory facilities.

The next series relates to P-gp. Also on record: method as in PMID 16384552. To be noted: read-out: Concentration that inhibited the activated ATPase activity by 50%; cited from earlier work.
Another series deals with sheep intestine. Also on record: method as in PMID 24611483. The following applies: Ussing chambers; cited from earlier work.
For series [4], the system named is bovine ileal explants.
From the text: as §1

A short description of series [5]: R-CNE plasma concentrations after oral administration to lambs. The format is in vivo. The following applies: Corriedale and Texel crossbreed, sheep, 100 mg/kg oral, four doses every 24 h, after each dose. As for the experimental part:
as §2
R-CNE analysis was performed according the technique described by Tao and Pereira ([23]), with modifications. Aliquots of plasma (0.25 mL) were mixed with acetonitrile, agitated and centrifuged. Supernatants were injected into the HPLC system fitted with a Kromasil C18 column. The mobile phase was water/acetonitrile (40/60) at an isocratic flow of 1.3 mL/min. R-CNE was analyzed using a UV detector (Shimadzu, SPD-10A).
as §1

A short description of series [6]: Undesirable effects after oral administration in the in vivo assay. To be noted: lambs, R-CNE 100 mg/kg, four oral doses every 24 h.
From the text: as §2

Series [7] concerns Haemonchus contortus egg hatch. Further details: method as in PMID 28807309. The following applies: in vitro; cited from earlier work.
Series [8] deals with Haemonchus spp. eggs and larvae. Also on record: method as in PMID 28807309. To be noted: in vitro; cited from earlier work.

Marks after values point to notes of the source that are not given here.

In the case of abamectin [ABM], in [1], the “AUC0−168h of ABM” value worked out at 815.67 ± 303.1, the “Cmax of ABM” value is on record as 16.20 ± 10.2^a μg/mL, the “Tmax of ABM” value is 10.75 ± 9.6^a h and the “T½ el (elimination half-life) of ABM” value is reported as 28.04 ± 8.1^a h. In addition, in series [2] (14 days after oral administration, mean ± SD), the “Mean epg counts Day 14” value is reported as 45 ± 121 epg. Also, the “Classification of drug efficacy according to Coles et al.” value in [2] (FECRT criteria) is listed as “suspected of resistance”. The “Mean epg counts Day 0” value in series [2] (before treatment, mean ± SD) was 2,193 ± 858 epg. The “FECR (LCL-UCL)” value in [2] (day 14, 95% confidence limits) is recorded as 94.9 (65.0-99.0) %. For the same compound, in [2] (day 14, third-stage larvae), the “Proportion of Haemonchus spp. in coprocultures after treatment” value is recorded as 88% and the “Proportion of Teladorsagia spp. in coprocultures after treatment” value turned out to be 12%. The “Concentrations necessary to inhibit P-gp transport, fold lower than to inhibit MRPs-mediated transport” value in the series on P-gp transport is 3 fold.

`CC[C@H](C)[C@H]1O[C@]2(CC[C@@H]1C)C[C@@H]1C[C@@H](C/C=C(\C)[C@@H](O[C@H]3C[C@H](OC)[C@@H](O[C@H]4C[C@H](OC)[C@@H](O)[C@H](C)O4)[C@H](C)O3)[C@@H](C)/C=C/C=C3\CO[C@@H]4[C@H](O)C(C)=C[C@@H](C(=O)O1)[C@]34O)O2` [IVM, ivermectin]: in the series with bovine ileal explants [3], the “Effect on ABM accumulation in intestinal explants” value is listed as “significantly increased the accumulation of ABM in the intestinal explants at all incubation times”. In addition, the IC50 in the series on P-gp is 2.5 µM. Besides, the “Increase of Rho123 absorption in the presence of the inhibitor” value with sheep intestine was 69%.

In the case of `COC(=O)c1ccccc1-c1c2ccc(=N)cc-2oc2cc(N)ccc12` [Rho123, Rhodamine 123], in the series on bovine ileal explants [4] (male, Aberdeen Angus/Hereford crossbreed, cattle, 0.5 µM), the “Accumulation rate of Rho123” value is given as 0.69 ± 0.19 ρg Rho/min/mg tissue.

The term Cmax denotes the highest concentration seen after dosing. `C=C(C)C1CC=C(C)C(=O)C1` (centres unmarked) [R-CNE, 5-isopropenyl-2-methyl-2-cyclohexenone]: the “Effect on Rho123 concentrations in the intestinal explants” value with bovine ileal explants [4] (3.33 mM R-CNE, 15, 30, 45, 60 min) is listed as “significantly increased Rho123 concentrations in the intestinal explants at all incubation times”. In addition, the “Rho123 concentration in intestinal explants, % higher than Rho123 incubated alone” value with bovine ileal explants [4] (60 min of incubation, 3.33 mM R-CNE, 0.5 μM Rho123) is given as 67 ± 21%. In addition, the “Effect on ABM accumulation in intestinal explants” value with bovine ileal explants [3] was “increased the intestinal concentration of the synthetic anthelmintic ABM at 15 and 30 min of incubation”. The “Intestinal concentration of ABM, % higher than control (ABM alone)” value with bovine ileal explants [3] (30 min of incubation, 3.33 mM R-CNE) was 28.1 ± 35.7%. Besides, the peak level in series [5] (Cmax) was 1790 ± 598 ng/mL. The “Undesirable effects after oral administration” value in series [6] is recorded as “no undesirable effects were observed”. The 50% lethal concentration in series [7] is 85 µg/mL. Further, the “Concentrations necessary to obtain an efficacy >90%” value in series [8] was 370 µg/mL.
